Test results as given in US20060148842A1, “Nepetalactams and N-substituted derivatives thereof” (priority 2004, published 2006).

Tested on: Aedes aegypti mosquitoes
Assay: in vitro Gupta box landing assay (insect repellency)
Conditions: 20 min; 1.0% (w/v) in IPA, 25 μL on Baudruche membrane; landings of female Aedes aegypti over 20 min vs IPA control
Method: The products of Examples 1-15 were evaluated for insect repellency against Aedes aegypti mosqutioes in the in vitro Gupta box landing assay. In this method a chamber contained 5 wells, each covered by a Baudruche (animal intestine) membrane. Each well was filled with bovine blood containing sodium citrate (to prevent clotting) and ATP (72 mg ATP disodium salt per 26 ml of blood), and heated to 37° C. A volume of 25 μL of isopropyl alcohol (IPA) containing one test specimen or control was applied to each membrane. The concentrations were 1.0% (w/v) in IPA. The negative control was membrane surface treated with neat IPA, and the positive control was a 1.0% (w/v) solution of DEET.
After 5 min, approximately 250 4-day-old female Aedes aegypti mosquitoes were introduced into the chamber. The number of mosquitoes probing the membranes for each treatment was recorded at 2 min intervals over 20 min. The results obtained in this manner with respect to the compounds of Examples 1˜12 are depicted, respectively, in FIGS. 1-12 (labeled as Examples 16˜27) wherein each datum represents the mean of five replicate experiments.
where C=the total number of landings on the IPA control well, and T=the total number of landings on the test solution well. The % mean repellencies at 1% (w/v) with respect to the compounds of Examples 1˜15 are depicted in Table 2, wherein R refers to the substituent on nepetalactam.

| Structure (SMILES) | pest or weed control at 10000 µg/mL [%] |
| --- | --- |
| CC1=CN(C(C)C)C(=O)[C@H]2[C@@H]1CC[C@@H]2C [IIIi, (4aS,7S,7aR)-2-n-isopropyl-4,7-dimethyl-2,4a,5,6,7,7a-hexahydro-1H-cyclopenta[c]pyridin-1-one] | 94.7 |
| CCN1C=C(C)[C@H]2CC[C@H](C)[C@H]2C1=O [IIIb, (4aS,7S,7aR)-2-ethyl-4,7-dimethyl-2,4a,5,6,7,7a-hexahydro-1H-cyclopenta[c]pyridin-1-one] | 97.9 |
| CC1=CN(C)C(=O)[C@H]2[C@@H]1CC[C@@H]2C [IIIa, (4aS,7S,7aR)-2,4,7-trimethyl-2,4a,5,6,7,7a-hexahydro-1H-cyclopenta[c]pyridin-1-one] | 94.8 |
| CC1=CN(c2ccc(Br)cc2)C(=O)[C@H]2[C@@H]1CC[C@@H]2C [Vc, (4aS,7S,7aR)-2-(4-bromophenyl)-4,7-dimethyl-2,4a,5,6,7,7a-hexahydro-1H-cyclopenta[c]pyridin-1-one] | 41.5 |
| CCCCN1C=C(C)[C@H]2CC[C@H](C)[C@H]2C1=O [IIId, (4aS,7S,7aR)-2-n-butyl-4,7-dimethyl-2,4a,5,6,7,7a-hexahydro-1H-cyclopenta[c]pyridin-1-one] | 97.3 |
| CCCCCCCCN1C=C(C)[C@H]2CC[C@H](C)[C@H]2C1=O [IIIg, (4aS,7S,7aR)-2-n-octyl-4,7-dimethyl-2,4a,5,6,7,7a-hexahydro-1H-cyclopenta[c]pyridin-1-one] | 93.2 |
| CCCCCCN1C=C(C)[C@H]2CC[C@H](C)[C@H]2C1=O [IIIf, (4aS,7S,7aR)-2-n-hexyl-4,7-dimethyl-2,4a,5,6,7,7a-hexahydro-1H-cyclopenta[c]pyridin-1-one] | 97.2 |
| C=CCN1C=C(C)[C@H]2CC[C@H](C)[C@H]2C1=O [IIIj, (4aS,7S,7aR)-2-n-allyl-4,7-dimethyl-2,4a,5,6,7,7a-hexahydro-1H-cyclopenta[c]pyridin-1-one] | 78.1 |
| CC1=CN(c2ccc(Cl)cc2)C(=O)[C@H]2[C@@H]1CC[C@@H]2C [Vb, (4aS,7S,7aR)-2-(4-chlorophenyl)-4,7-dimethyl-2,4a,5,6,7,7a-hexahydro-1H-cyclopenta[c]pyridin-1-one] | 75.3 |
| CC1=CNC(=O)[C@H]2[C@@H]1CC[C@@H]2C [II, (4aS,7S,7aR)-4,7-dimethyl-2,4a,5,6,7,7a-hexahydro-1H-cyclopenta [c]pyridin-1-one] | 66 |
| CC1=CN(C2CCCCC2)C(=O)[C@H]2[C@@H]1CC[C@@H]2C [IIIh, (4aS,7S,7aR)-2-n-cyclohexyl-4,7-dimethyl-2,4a,5,6,7,7a-hexahydro-1H-cyclopenta[c]pyridin-1-one] | 98.9 |
| CC1=CN(c2ccccc2)C(=O)[C@H]2[C@@H]1CC[C@@H]2C [Va, (4aS,7S,7aR)-4,7-dimethyl-2-phenyl-2,4a,5,6,7,7a-hexahydro-1H-cyclopenta[c]pyridin-1-one] | 93.1 |
| C#CCN1C=C(C)[C@H]2CC[C@H](C)[C@H]2C1=O [IIIk, (4aS,7S,7aR)-2-n-propargyl-4,7-dimethyl-2,4a,5,6,7,7a-hexahydro-1H-cyclopenta[c]pyridin-1-one] | 95.6 |
| CCCN1C=C(C)[C@H]2CC[C@H](C)[C@H]2C1=O [IIIc, (4aS,7S,7aR)-2-n-propyl-4,7-dimethyl-2,4a,5,6,7,7a-hexahydro-1H-cyclopenta[c]pyridin-1-one] | 99.8 |
| CCCCCN1C=C(C)[C@H]2CC[C@H](C)[C@H]2C1=O [IIIe, (4aS,7S,7aR)-2-n-pentyl-4,7-dimethyl-2,4a,5,6,7,7a-hexahydro-1H-cyclopenta[c]pyridin-1-one] | 97.5 |
